From patent US12331040B2 (Karyopharm Therapeutics Inc., priority 2013, dated 2025)

Assays:
U2OS cells = assay: Staining of β-catenin, cofilin and F-actin in fixed U2OS cells; assay type: cell-based, human; details: 1 μM, 48 hours
Description: U2OS cells were grown on coverslips and treated with DMSO or 1 μM Compound 585 for 48 hours, at which time the cells were fixed and stained. The cells were labeled with phospho- or total β-catenin antibodies; phospho- or total cofilin antibodies; or ALEXA-FLUORO 488 phalloidin. Both phospho- and total β-catenin were reduced by treatment with Compound 585. Both phospho- and total cofilin were reduced by treatment with Compound 585. ALEXA-FLUORO 488 phalloidin was used to stain F-actin.

[1] = test system: PAK4 signalling in IMR-90 cells; assay: Western blots of PAK4 signalling in normal cells (IMR-90); assay type: cell-based; details: IMR-90 normal cell line; 72-hour treatment, increasing concentrations; Western blot
Description: Normal human dermal fibroblasts (NHDF) and normal lung cells (IMR-90) were treated with Compound 585 for 72 hours, at which time the cells were lysed in RIPA buffer. The lysates were run on SDS-PAGE and Western blots of phospho-PAK4, PAK4, phospho-cofilin, cofilin, phospho-β-catenin, β-catenin, PARP and caspase-3 were performed.

Z-138 xenografts = assay: Z-138 mantle cell lymphoma xenograft in SCID mice; assay type: in vivo; design: toxicity (side effects, weight loss): dose or concentration left out as unconfirmed
Description: The impact of Compound 585 on tumor growth was tested using a Z-138 mantle cell lymphoma cancer xenograft model in SCID mice. Z-138 (ATCC #CRL-3001) mantle cell lymphoma cells were obtained from ATCC. These cells were grown in IMEM medium supplemented with 10% horse serum, 1% penicillin and streptomycin, and 2 mM L-glutamine. Cells were sub-cultured by dilution at a ratio of 1:5 to 1:10. Z-138 cells were harvested by centrifugation and counted using a hemocytometer. Cells were resuspended in PBS at a 2×10^8 cells per mL. Cells were placed on ice and mixed with an equal volume of Matrigel (BD Biosciences CB-40234). This mixture was kept on ice and injected into the left flank of mice in a volume of 0.2 mL, equivalent to 2×10^7 cells per mouse. Forty (40) CB-17 SCID mice were inoculated subcutaneously in the left flank with 2×10^7 Z-138 cells. Treatment was initiated when the tumors reached a mean volume of 125.2 mm^3. Mice were allocated to five (5) groups of eight (8) mice such that mean tumor volume in each group was within the range of 106.5 to 138.8 mm^3. Mice were treated with vehicle, standard of care/positive control drug (cyclophosphamide), or Compound 585. […] Animal weights and conditions were recorded daily, and tumors were measured on Mondays, Wednesdays and Fridays.

normal cells = assay: 72-hour MTT cell proliferation assay, summary over the normal cell lines tested; assay type: cell-based; details: normal cells (n=10): NHDF, 3T3, NHEK, IMR-90, PBMC, ARPE-19, HS738.st, WI-38, MRC-5, RWPE-1
Description: The MTT cell proliferation assay was used to study the cytotoxic properties of the compounds. The assay was performed according to the method described by Roche Molecular Biochemicals, with minor modifications. The assay is based on the cleavage of the tetrazolium salt, MTT, in the presence of an electron-coupling reagent. The water-insoluble formazan salt produced must be solubilized in an additional step. Cells grown in a 96-well tissue culture plate were incubated with the MTT solution for approximately 4 hours. After this incubation period, a water-insoluble formazan dye formed. After solubilization, the formazan dye was quantitated using a scanning multi-well spectrophotometer (ELISA reader). […] The cells were seeded at 5,000-10,000 cells in each well of 96-well plate in 100 μL of fresh culture medium and were allowed to attach overnight. The stock solutions of the compounds were diluted in 100 μL cell culture medium to obtain eight concentrations of each test compound, ranging from 1 nM to 30 μM. […] All optical densities were measured at 490 nm using a Vmax Kinetic Microplate Reader (Molecular Devices). In most cases, the assay was performed in duplicate and the results were presented as a mean percent inhibition to the negative control±SE. The following formula was used to calculate the percent of inhibition: Inhibition (%)=(1−(ODo/OD))×100. […]

Hep 3B xenografts = assay: Hep3B hepatocellular carcinoma xenograft in SCID mice; assay type: in vivo
Description: The effects of Compound 585 were evaluated on tumor growth using a Hep3B hepatocellular carcinoma xenograft model in SCID mice. Hep 3B (ATCC […]) hepatocellular carcinoma cells were obtained from ATCC. These cells were grown in DMEM medium supplemented with 10% fetal bovine serum and 1% penicillin and streptomycin. Cells were sub-cultured by dilution at a ratio of 1:4. Hep3B cells were harvested by centrifugation and counted using a hemocytometer. Cells were resuspended in PBS at a 5×10^7 cells per mL. Cells were placed on ice, then mixed with an equal volume of Matrigel™ (BD Biosciences CB-40234). This mixture was kept on ice and injected into the left flank of mice in a volume of 0.2 mL, equivalent to 5×10^6 cells per mouse. Thirty-two (32) SCID mice were inoculated subcutaneously in the left flank with 5×10^6 Hep 3B cells. Treatment was initiated when the tumors reached a mean volume of 103.7 mm3 (standard deviation±30 mm^3, range 17-183 mm^3). Mice were allocated to four (4) groups of eight (8) mice such that mean tumor volume in each group was within the range of 95 to 104 mm^3. Mice were treated with vehicle, standard of care control (doxorubicin), or Compound 585. With the exception of doxorubicin (which was given IP), all compounds were given by oral gavage. […] Animal weights and conditions were recorded daily, and tumors were measured on Mondays, Wednesdays and Fridays.

With `Nc1ccc(/C=C/C(=O)NCc2cc3cc(-c4ccc(C(=O)N5CCC(F)(F)CC5)cn4)cc(C(F)(F)F)c3o2)cn1` [Compound 585, (E)-3-(6-aminopyridin-3-yl)-N-((5-(5-(4,4-difluoropiperidine-1-carbonyl)pyridin-2-yl)-7-(trifluoromethyl)benzofuran-2-yl)methyl)acrylamide] the “stress fiber formation (F-actin, phalloidin)” value (U2OS cells) was “increase in stress fiber formation”, the “phospho- and total cofilin” value (U2OS cells; antibody staining) was “reduced” and the “phospho- and total β-catenin” value (U2OS cells; antibody staining) was “reduced”. For the same compound, the “effect on PAK4 signalling (phospho-PAK4, PAK4, phospho-cofilin, cofilin, phospho-β-catenin, β-catenin, PARP, caspase 3)” value [1] was “little to no effect”, the “mean tumor volume of Z-138 xenografts” value (Z-138 xenografts; SCID mice, 10, 30, or 60 mg/kg PO daily) was “tumor growth inhibition and even tumor regression” and the “toxicity (side effects, weight loss)” value (Z-138 xenografts; Z-138 xenograft model, minimal or no side effects or weight loss up to daily dose) was “without major toxicity”. The “inhibition of normal cells” value (normal cells) was “did not inhibit”, the “toxicity (side effects, weight loss)” value (Hep 3B xenografts; Hep 3B xenograft model, minimal or no side effects or weight loss up to 200 mg/kg daily dose) was “without major toxicity” and the “mean tumor volume of Hep 3B xenografts” value (Hep 3B xenografts; SCID mice, 20 or 60 mg/kg PO daily) was “tumor growth inhibition”.
